# Where two headings read alike, the source gives them in different places.
# What was measured:
# Assay type in all cases: cell-based
# [1] = tested on: Mycobacterium tuberculosis (MTB); assay: MIC by proportions method (NCCLS M24-T, 1995), 82 MTB strains; details: compared with the other quinolones
# Hafnia alvei = assay: MIC by agar dilution (NCCLS M7-A4), 288 enteropathogenic isolates, eight quinolones; details: Hafnia alvei (n = 32)
# Yersinia enterocolitica = assay: as above; details: Yersinia enterocolitica (n = 22)
# Streptococcus pyogenes = assay: MIC by NCCLS reference broth microdilution, 450 respiratory tract pathogens; details: for MIC / MIC50 / MIC90: Streptococcus pyogenes
# Staphylococcus aureus = assay: as above
# [2] = tested on: Streptococcus pneumoniae and Haemophilus influenzae; assay: MIC by broth microdilution (NCCLS), all isolates pooled
# Streptococcus pneumoniae [3] = assay: MIC by two-fold serial agar dilution, Sensitivity Disk agar-N (Kitasato isolates); details: for MIC90 / MIC / MIC50: Streptococcus pneumoniae; for MIC90: read-out: MIC90; for MIC: read-out: MIC Range; for MIC50: read-out: MIC50
# [4] = tested on: Staphylococcus epidermidis; assay: MIC by NCCLS broth microdilution, 1100 Japanese clinical isolates 1997-1998; details: for MIC50 / MIC90: Staphylococcus epidermidis
# Streptococcus pneumoniae [5] = assay: as above
# [6] = Streptococcus pyogenes (n = 100)
# [7] = erythromycin resistant C phenotype [MLSB] (n = 20)
# [8] = erythromycin resistant I phenotype [MLSB] (n = 20)
# [9] = erythromycin resistant M phenotype (n = 20)
# [10] = β-lactamase positive and erythromycin resistant (n = 10)
# [11] = Staphylococcus epidermidis oxacillin resistant (n=43)
# [12] = Staphylococcus epidermidis oxacillin susceptible (n=35)
smiles,measurement,setting,value
"CO/N=C1\CN(c2nc3c(cc2F)c(=O)c(C(=O)O)cn3C2CC2)CC1CN (racemic) [Gemifloxacin, (R,S)-7-(3-aminomethyl-4-methoxyiminopyrrolidin-1-yl)-1-cyclopropyl-6-fluoro-4-oxo-1,4-dihydro-1,8-naphthyridine-3-carboxylic acid]",in vitro activity against MTB,[1],lower in vitro activity
same,% Susceptible,Hafnia alvei,100%
same,MIC50,Hafnia alvei,0.03 µg/mL
same,MIC90,Hafnia alvei,0.03 µg/mL
same,MIC Range,Hafnia alvei,≤0.015 to 0.06 µg/mL
same,% Susceptible,Yersinia enterocolitica,100%
same,MIC50,Yersinia enterocolitica,0.03 µg/mL
same,MIC90,Yersinia enterocolitica,0.03 µg/mL
same,MIC Range,Yersinia enterocolitica,≤0.015 to 0.12 µg/mL
same,activity higher than that of the other fluoroquinolones tested,Streptococcus pyogenes; S. pyogenes,2-32 fold
same,MIC,Streptococcus pyogenes; [6],0.00375 to 0.06 µg/mL
same,MIC50,Streptococcus pyogenes; [6],0.015 µg/mL
same,MIC90,Streptococcus pyogenes; [6],0.03 µg/mL
same,MIC,Streptococcus pyogenes; [7],0.00375 to 0.03 µg/mL
same,MIC50,Streptococcus pyogenes; [7],0.015 µg/mL
same,MIC90,Streptococcus pyogenes; [7],0.015 µg/mL
same,MIC,Streptococcus pyogenes; [8],0.00375 to 0.06 µg/mL
same,MIC50,Streptococcus pyogenes; [8],0.015 µg/mL
same,MIC90,Streptococcus pyogenes; [8],0.03 µg/mL
same,MIC,Streptococcus pyogenes; [9],0.00375 to 0.03 µg/mL
same,MIC50,Streptococcus pyogenes; [9],0.015 µg/mL
same,MIC90,Streptococcus pyogenes; [9],0.015 µg/mL
same,MIC,Streptococcus pyogenes; fully susceptible (n = 20),0.0075 to 0.03 µg/mL
same,MIC50,Streptococcus pyogenes; fully susceptible (n = 20),0.015 µg/mL
same,MIC90,Streptococcus pyogenes; fully susceptible (n = 20),0.03 µg/mL
same,MIC,Streptococcus pyogenes; multi-drug resistant (n = 20),0.0075 to 0.015 µg/mL
same,MIC50,Streptococcus pyogenes; multi-drug resistant (n = 20),0.015 µg/mL
same,MIC90,Streptococcus pyogenes; multi-drug resistant (n = 20),0.03 µg/mL
same,MIC,Staphylococcus aureus; Staphylococcus aureus (n = 50),0.00375 to 0.12 µg/mL
same,MIC50,Staphylococcus aureus; Staphylococcus aureus (n = 50),0.06 µg/mL
same,MIC90,Staphylococcus aureus; Staphylococcus aureus (n = 50),0.12 µg/mL
same,MIC,Staphylococcus aureus; β-lactamase negative (n = 20),0.06 to 0.12 µg/mL
same,MIC50,Staphylococcus aureus; β-lactamase negative (n = 20),0.12 µg/mL
same,MIC90,Staphylococcus aureus; β-lactamase negative (n = 20),0.12 µg/mL
same,MIC,Staphylococcus aureus; β-lactamase positive (n = 20),0.00375 to 0.12 µg/mL
same,MIC50,Staphylococcus aureus; β-lactamase positive (n = 20),0.12 µg/mL
same,MIC90,Staphylococcus aureus; β-lactamase positive (n = 20),0.123 µg/mL
same,MIC,Staphylococcus aureus; [10],0.06 to 0.12 µg/mL
same,MIC50,Staphylococcus aureus; [10],0.06 µg/mL
same,MIC90,Staphylococcus aureus; [10],0.06 µg/mL
same,concentration at which all microorganisms were inhibited,"[2]; 380 isolates (235 S. pneumoniae, 145 H. influenzae)",0.06 µg/mL
same,concentration at which all isolates were inhibited,[2]; All 602 isolates,0.12 µg/mL
same,MIC90,"[2]; all (380) isolates tested (235 S. pneumoniae, 145 H. influenzae)",0.03 µg/mL
same,MIC90,[2]; all isolates tested (602),0.06 µg/mL
same,more potent than sparfloxacin,"Streptococcus pneumoniae [3]; S. pneumoniae, by MIC90",8 fold
same,more potent than trovafloxacin,"Streptococcus pneumoniae [3]; S. pneumoniae, by MIC90",4 fold
same,MIC90,"Streptococcus pneumoniae [3]; 18 h, Ciprofloxacin-resistant (21), ciprofloxacin MIC ≥8 µg/ml",0.5 µg/mL
same,MIC,"Streptococcus pneumoniae [3]; 18 h, Ciprofloxacin-resistant (21)",0.063 to 0.5 µg/mL
same,MIC,"Streptococcus pneumoniae [3]; 18 h, Ciprofloxacin-susceptible (94)",0.008 to 0.063 µg/mL
same,MIC,"Streptococcus pneumoniae [3]; 18 h, Erythromycin-resistant (37)",0.016 to 0.5 µg/mL
same,MIC,"Streptococcus pneumoniae [3]; 18 h, Minocycline-resistant (37)",0.016 to 0.5 µg/mL
same,MIC,"Streptococcus pneumoniae [3]; 18 h, Penicillin-resistant (19)",0.016 to 0.063 µg/mL
same,MIC50,Streptococcus pneumoniae [3]; Ciprofloxacin-resistant (21),0.25 µg/mL
same,MIC50,Streptococcus pneumoniae [3]; Ciprofloxacin-susceptible (94),0.031 µg/mL
same,MIC90,Streptococcus pneumoniae [3]; Ciprofloxacin-susceptible (94),0.031 µg/mL
same,MIC50,Streptococcus pneumoniae [3]; Erythromycin-resistant (37),0.031 µg/mL
same,MIC90,Streptococcus pneumoniae [3]; Erythromycin-resistant (37),0.063 µg/mL
same,MIC50,Streptococcus pneumoniae [3]; Minocycline-resistant (37),0.031 µg/mL
same,MIC90,Streptococcus pneumoniae [3]; Minocycline-resistant (37),0.063 µg/mL
same,MIC50,Streptococcus pneumoniae [3]; Penicillin-resistant (19),0.016 µg/mL
same,MIC90,Streptococcus pneumoniae [3]; Penicillin-resistant (19),0.063 µg/mL
same,MIC Range,[4]; [11],0.032 to 4 µg/mL
same,MIC Range,[4]; [12],≤0.008 to 2 µg/mL
same,MIC50,[4]; [11],0.5 µg/mL
same,MIC90,[4]; [11],2 µg/mL
same,MIC50,[4]; [12],0.032 µg/mL
same,MIC90,[4]; [12],0.5 µg/mL
same,MIC Range,Streptococcus pneumoniae [5]; Streptococcus pneumoniae amoxicillin resistant (n=40),0.016 to 0.125 µg/mL
same,MIC Range,Streptococcus pneumoniae [5]; Streptococcus pneumoniae amoxicillin susceptible (n=35),≤0.008 to 0.125 µg/mL
same,MIC Range,Streptococcus pneumoniae [5]; Streptococcus pneumoniae erythromycin resistant (n=34),≤0.008 to 0.125 µg/mL
same,MIC Range,Streptococcus pneumoniae [5]; Streptococcus pneumoniae erythromycin susceptible (n=11),0.016 to 0.032 µg/mL
same,MIC50,"Streptococcus pneumoniae [5]; Streptococcus pneumoniae, Streptococcus pneumoniae amoxicillin resistant (n=40), read-out: MIC50",0.032 µg/mL

# From EP1561465A2, “Methods of use of fluoroquinolone compounds against bacteria” (LG Life Sciences, Ltd., priority 1999, dated 2001)
